Literature values in US8940275B2, “Nanoparticles based on gadolinium coordination polymers as highly sensitive T1 MRI contrast agents” (Kent State University, priority 2010, dated 2015).

Experiments:
[1] = clinical MRI contrast agents; 1.5 T
[2] = commercial agents, field not given

Row | SMILES | R1 (typical relaxivity value) [1] [mM⁻¹ s⁻¹] | r1 [2] [mM⁻¹ s⁻¹]
1 | CNC(=O)CN(CCN(CCN(CC(=O)[O-])CC(=O)NC)CC(=O)[O-])CC(=O)[O-].[Gd+3] [Omniscan ®] | 4.6 | –
2 | CC(O)CN1CCN(CC(=O)[O-])CCN(CC(=O)[O-])CCN(CC(=O)[O-])CC1.[Gd+3] (stereo not drawn) [ProHance ®] | 4.4 | –
3 | CNC[C@H](O)[C@@H](O)[C@H](O)[C@H](O)CO.CNC[C@H](O)[C@@H](O)[C@H](O)[C@H](O)CO.O=C([O-])CN(CCN(CC(=O)[O-])CC(=O)O)CCN(CC(=O)O)C(COCc1ccccc1)C(=O)[O-].[Gd+3] (stereo not drawn) [MultiHance] | 6.7 | –
4 | CCOc1ccc(CC(CN(CCN(CC(=O)[O-])CC(=O)[O-])CC(=O)[O-])N(CC(=O)[O-])CC(=O)[O-])cc1.[Gd+3].[Na+].[Na+] (stereo not drawn) [Primovist] | 7.3 | –
5 | CNC[C@H](O)[C@@H](O)[C@H](O)[C@H](O)CO.O=C([O-])CN1CCN(CC(=O)[O-])CCN(CC(=O)O)CCN(CC(=O)[O-])CC1.[Gd+3] [Dotarem ®] | 4.2 | –
6 | CNC[C@H](O)[C@@H](O)[C@H](O)[C@H](O)CO.CNC[C@H](O)[C@@H](O)[C@H](O)[C@H](O)CO.O=C([O-])CN(CCN(CC(=O)[O-])CC(=O)O)CCN(CC(=O)[O-])CC(=O)O.[Gd+3] [Magnevist ®] | 4.3 | 4.3
7 | O=C([O-])CN1CCN(CC(=O)[O-])CCN([C@H](CO)[C@H](O)CO)CCN(CC(=O)[O-])CC1.[Gd+3] (racemic) [Gadovist ®] | 5.3 | –
8 | COCCNC(=O)CN(CCN(CCN(CC(=O)[O-])CC(=O)NCCOC)CC(=O)[O-])CC(=O)[O-].[Gd+3] [OptiMARK] | 5.2 | –
